# Patent US20220400680A1, “USE OF ACYLCYANAMIDES OR SALTS THEREOF FOR REGULATING PLANT GROWTH” (Alzchem Trostberg GmbH, priority 2019, published 2022)
# Tests used:
# [1] = tested on: Table cherry, type Burlat (C3); experiment: Greenhouse test, cut cherry branches C3 dipped in test solution, bud development stage; assay type: in vivo, Prunus avium; design: key to Bud development stage, cherry branches C3: Stage 0: Buds unchanged; Stage 1: Buds slightly swollen, first green tips visible; Stage 2: strongly swollen, green buds; Stage 3: Buds before breaking open, leaf or flower root already visible; Stage 4: Flower buds fully developed, but still closed, white petals already visible. In the case of the grapevine, stage 4 was the unfolding of the first leaves; Stage 5: Flowers fully open or, in the case of grapevine, unfolding of the flower roots (“Gescheine”) on the fully leafed sprouts
# In short: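 Cut branches kept in water jars in a greenhouse at about 22° C. under natural light after dipping in aqueous solution of 0.15 mol test substance (0.075 mol for bis-cyanamides) plus 0.15 g BreakThru OE-446 per 500 g. Bud development scored on a stage scale from closed buds to fully open flowers.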
# [2] = tested on: Table apple, type Boiken apple (C1); experiment: Greenhouse test, cut apple branches C1 dipped in test solution, bud development stage; assay type: in vivo, Malus domestica; design: key to Bud development stage, apple branches C1: Stage 0: Buds unchanged; Stage 1: Buds slightly swollen, first green tips visible; Stage 2: strongly swollen, green buds; Stage 3: Buds before breaking open, leaf or flower root already visible; Stage 4: Flower buds fully developed, but still closed, white petals already visible. In the case of the grapevine, stage 4 was the unfolding of the first leaves; Stage 5: Flowers fully open or, in the case of grapevine, unfolding of the flower roots (“Gescheine”) on the fully leafed sprouts
# In short: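 Cut Boiken apple branches kept in water jars in a greenhouse at about 22 °C under natural light and dipped in test solution. Solutions contained 0.15 mol test substance (0.075 mol for bis-cyanamides) plus 0.15 g BreakThru OE-446 per 500 g water. Bud development scored on a stage scale up to full flowering.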
# [3] = tested on: Table apple, type Zabergäu-Renette (C2); experiment: Greenhouse test, cut apple branches C2 dipped in test solution, bud development stage; assay type: in vivo, Malus domestica; design: key to Bud development stage, apple branches C2: Stage 0: Buds unchanged; Stage 1: Buds slightly swollen, first green tips visible; Stage 2: strongly swollen, green buds; Stage 3: Buds before breaking open, leaf or flower root already visible; Stage 4: Flower buds fully developed, but still closed, white petals already visible. In the case of the grapevine, stage 4 was the unfolding of the first leaves; Stage 5: Flowers fully open or, in the case of grapevine, unfolding of the flower roots (“Gescheine”) on the fully leafed sprouts
# In short: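 Cut branches held in water jars in a greenhouse at about 22° C. under natural light after dipping in aqueous test solution: 0.15 mol substance (0.075 mol for bis-cyanamides) plus 0.15 g BreakThru OE-446 per 500 g. Bud development scored on a stage scale from closed buds to fully open flowers.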
# [4] = T1 (14 d), 0.15 mol (A-14, A-15: 0.075 mol) per 500 g solution
# [5] = stage 4 reached or exceeded after 36 days vs negative control
structure (smiles),measurement,setting,value
"CC(=O)NC#N.[Na] [Example A-1, Sodium Acetylcyanamide]","Bud development stage, cherry branches C3",[1]; [4],1
same,"Bud development stage, cherry branches C3",[1]; T2 (16 d),2
same,"Bud development stage, cherry branches C3",[1]; T3 (21 d),5
same,"Bud development stage, cherry branches C3",[1]; T4 (27 d),5
same,"Bud development stage, cherry branches C3",[1]; T5 (36 d),5
same,"Bud development stage, cherry branches C3",[1]; T6 (56 d),5
same,"Good to very good dormancy-breaking effect, cherry C3",[1]; stage 4 reached or exceeded after 21 days vs negative control,good to very good dormancy-breaking effect
same,"Dormancy-breaking effect according to the definition, cherry C3",[1]; stage 4 reached or exceeded after 27 days vs negative control,dormancy-breaking effect
same,"Bud development stage, apple branches C1",[2]; [4],0
same,"Bud development stage, apple branches C1",[2]; T2 (16 d),0
same,"Bud development stage, apple branches C1",[2]; T3 (21 d),2
same,"Bud development stage, apple branches C1",[2]; T4 (27 d),3
same,"Bud development stage, apple branches C1",[2]; T5 (36 d),5
same,"Bud development stage, apple branches C1",[2]; T6 (56 d),5
same,"Dormancy-breaking effect according to the definition, apple C1",[2]; [5],dormancy-breaking effect
same,"Bud development stage, apple branches C2",[3]; [4],0
same,"Bud development stage, apple branches C2",[3]; T2 (16 d),0
same,"Bud development stage, apple branches C2",[3]; T3 (21 d),1
same,"Bud development stage, apple branches C2",[3]; T4 (27 d),3
same,"Bud development stage, apple branches C2",[3]; T5 (36 d),5
same,"Bud development stage, apple branches C2",[3]; T6 (56 d),5
same,"Dormancy-breaking effect according to the definition, apple C2",[3]; [5],dormancy-breaking effect
